Reference: patent US20240173432A1, “Compositions and Methods for Treatment of Myotonic Dystrophy Type 1 with CRISPR/SluCas9” (Vertex Pharmaceuticals Incorporated, priority 2021, published 2024)

Tests used:
[1] = tested on: CUG foci in primary DM1 patient myoblasts; experiment: Dual-cut screening: FISH staining of CUG RNA foci; format: cell-based, human; conditions: sgRNAs working with partner(s) or alone
Outline: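 SluCas9 RNPs (protein:sgRNA 1:3; 20 pmol SluCas9 + 60 pmol sgRNA per guide, paired 1:1) nucleofected into primary DM1 patient myoblasts, then DMSO or 3 μM DNA-PKi Compound 6 for 48 h. At 72 h post-nucleofection cells fixed, FISH-stained with Cy3-PNA(CAG)5 probe plus anti-MBNL1 and Hoechst; % CUG foci-free nuclei by high-content confocal imaging.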

[2] = tested on: CUG foci in primary DM1 patient myoblasts; experiment: Single-cut screening: FISH staining of CUG RNA foci; format: cell-based, human; conditions: for frequency of CUG foci free myoblast nuclei (foci number per nucleus=0) / frequency of myoblast nuclei that contain more than three CUG foci: RNA foci distribution analysis (FIG. 6A-B); for % of CUG foci free nuclei (DNA-PKi) / % of CUG foci free nuclei (Vehicle): single sgRNA, primary DM1 patient myoblasts; for % of CUG foci free nuclei (DNA-PKi): DNA-PKi treated
Outline: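 CD56-purified primary DM1 patient myoblasts nucleofected with SluCas9:sgRNA RNP (30:90 pmol, single-cut), then DMSO or 3 μM DNA-PK inhibitor for 48 h. At 72 h post-nucleofection, cells fixed and stained for CUG foci with Cy3-PNA(CAG)5 probe (1 ng/μL, 80 °C), co-stained for MBNL1 and Hoechst, imaged by high-content confocal microscopy.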

## ATGGGCAAACTGCAGGCCTGGG (listed as DNA, chemistry not fully specified) [SluD14]
[1]
  RNA foci reduction efficiency: exceptionally high RNA foci reduction efficiency
[2]
  frequency of CUG foci free myoblast nuclei (foci number per nucleus=0): increased the frequency
  frequency of myoblast nuclei that contain more than three CUG foci: reduced the frequency
  % of CUG foci free nuclei (DNA-PKi): 81.82%
  % of CUG foci free nuclei (Vehicle): 53.12%
[2]; single-cut, DNA-PKi treatment (3 μM Compound 6, 48 hrs)
  percentage of CUG foci free nuclei: 81.82%

## GCCCCGTTGGAAGACTGAGTGC (listed as DNA, chemistry not fully specified) [SluU08]
[1]
  RNA foci reduction efficiency: exceptionally high RNA foci reduction efficiency
[2]
  % of CUG foci free nuclei (DNA-PKi): 61.56%
  % of CUG foci free nuclei (Vehicle): 31.42%

## gggcTCGAAGGGTCCTTGTAGC (as printed in the source, key not given here) [SluU64]
[1]
  RNA foci reduction efficiency: exceptionally high RNA foci reduction efficiency
[2]
  % of CUG foci free nuclei (DNA-PKi): 67.39%
  % of CUG foci free nuclei (Vehicle): 37.58%

## ggggcTCGAAGGGTCCTTGTAG (as printed in the source, key not given here) [SluU63]
[1]
  RNA foci reduction efficiency: exceptionally high RNA foci reduction efficiency
[2]
  frequency of CUG foci free myoblast nuclei (foci number per nucleus=0): increased the frequency
  frequency of myoblast nuclei that contain more than three CUG foci: reduced the frequency
  % of CUG foci free nuclei (DNA-PKi): 70.99%
  % of CUG foci free nuclei (Vehicle): 44.78%
